Data taken from patent US9303057B2, “Methods and reagents for analyzing riboswitches using FRET” (CORNELL UNIVERSITY, priority 2011, dated 2016).

Key:
[1] = tested on: SAM-II riboswitch; assay: smFRET imaging of pseudoknot formation of surface-immobilized Cy3/Cy5-labeled riboswitch; type: binding, Sargasso Sea metagenome
Description: To reveal the underlying dynamics of SAM-II pseudoknot formation, single-molecule FRET (smFRET) (Aleman 2008; Lemay 2006; Brenner 2010) investigations were performed using the same labeling strategy as in Example 2 (i.e., A14^Cy3U and G52^Cy5U). To enable surface immobilization of the SAM-II riboswitch within a passivated microfluidic device and extended observation periods, a 5′-biotin moiety was included in the design (FIG. 2, FIG. 3).
smFRET data were acquired using a prism-based total internal reflection (TIR) microscope, where the biotinylated SAM-II riboswitch was surface immobilized within PEG-passivated, strepatividin-coated quartz microfluidic devices (Munro 2007). The Cy3 fluorophore was directly illuminated under 1.5 kW/cm^2 intensity at 532 nm (Laser Quantum). Photons emitted from both Cy3 and Cy5 were collected using a 1.2 NA 60× Plan-APO water-immersion objective (Nikon), where optical treatments were used to spatially separate Cy3 and Cy5 frequencies onto two, synchronized EMCCD devices (Evolve 512, Photometrics). Fluorescence data were acquired using MetaMorph acquisition software (Universal Imaging Corporation) at a rate of 66.7 frames per second (15 ms integration). Fluorescence trajectories were selected from the movie files for analysis using automated image analysis software coded in Matlab (The MathWorks). Fluorescence trajectories were selected based on the following criteria: a single catastrophic photobleaching event, at least 6:1 signal-to-background noise ratio (SNR) calculated from the total fluorescence intensity, and a FRET lifetime of at least 30 frames (450 ms) in any FRET state ≧0.15. smFRET trajectories were calculated from the acquired fluorescence data using the formula FRET=ICy5/(ICy3+ICy5), where ICy3 and ICy5 represent the Cy3 and Cy5 fluorescence intensities, respectively. Equilibrium smFRET experiments were performed in 50 mM KMOPS, 100 mM KCl, pH 7.5 buffer in the presence of an optimized oxygen scavenging and triplet state quenching cocktail in the presence of an oxygen scavenging environment (1 unit protocatchuate-3,4-dioxygenase, 2 mM protocatechuic acid; 1 mM Trolox, 1 mM cyclooctatetraene, 1 mM nitrobenzyl-alcohol) (Dave 2009). Concentrations of MgCl2 and SAM were as specified in the figure captions. […]
As previously described, the emission intensities of both Cy3 and Cy5 fluorophores were tracked simultaneously for individual surface-immobilized molecules using a wide-field, prism-based total internal reflection configuration, with a single-frequency light source (532 nm) (Munro 2007). […] The dynamic behaviors of individual molecules were assessed using hidden Markov modeling (HMM) procedures, and ensemble information was obtained by assembling single-molecule FRET trajectories into population FRET histograms. […]

[2] = tested on: SAM-II riboswitch; assay: Bulk FRET detection of pseudoknot formation (steady-state fluorescence of Cy3/Cy5-labeled riboswitch); type: binding, Sargasso Sea metagenome
Description: FIG. 2 illustrates the construction of a Cy3/Cy5-labeled SAM-II construct sensitive to pseudoknot formation. (a) The strategy for synthesis, labeling and enzymatic ligation is shown, with the chemical structures of fluorophores and linkers provided in FIG. 3. (b) Anion-exchange (AE) HPLC trace of enzymatic ligation using T4 DNA ligase and a DNA splint at the start (0 h) and after completion (9 h). The product (retention time=37.3 min) was purified by AE-HPLC. (c) LC-ESI mass spectrum of purified ligation product. (d) Fluorescence emission response of the acceptor dye in the Cy5/Cy3 labeled SAM-II construct upon consecutive Mg^2+ and SAM addition under conditions where cRNA=0.5 μM, cSAM=5.0 μM, cmg=2.0 mM, 50 mM KMOPS, 100 mM KCl, 20° C., pH 7.5; λex=540 nm, λem=665 nm.
All experiments were measured on a Cary Eclipse spectrometer (Varian, Palo Alto, USA) equipped with a peltier block, a magnetic stirring device, and a RX2000 stopped-flow apparatus (Applied Photophysics Ltd., Leatherhead, UK).
Based on the reported structure of the SAM-II riboswitch (Gilbert 2008), an acceptor (Cy5) fluorophore was attached to the non-conserved nucleoside at position 14, and a donor (Cy3) fluorophore at the unpaired terminal residue at position 52 (FIG. 1a). […]

Row | SMILES | increase of the absolute value of the low-FRET state ([1]; 2 mM Mg2+, no SAM) | stabilization of the high-FRET state ([1]; 2 mM Mg2+, no SAM) | observed rate of increase of acceptor fluorescence emission (single exponential) ([2]; 6 equivalents of SAM, Cy3/Cy5-labeled riboswitch, cRNA=0.5 μM, 2.0 mM Mg2+, 20° C., pH 7.5) | fluorescence emission from the acceptor fluorophore achieved via FRET ([2]; addition of 10 equivalents of SAM) | average dwell time in the high-FRET state ([1]; 2 mM Mg2+ and 10 μM SAM) | stabilization of the high-FRET state ([1]; 2 mM Mg2+ and 10 μM SAM) [fold]
1 | [Cl-].[Cl-].[Mg+2] [Mg^2+] | 0.08 | approximately 10 fold |  |  |  | 
2 | C[S+](CC[C@H](N)C(=O)O)C[C@H]1O[C@@H](n2cnc3c(N)ncnc32)[C@H](O)[C@@H]1O (stereo partly drawn) [SAM, S-adenosylmethionine] |  |  | 1.19±0.06×10^−2 s^−1 | dramatically increase in intensity | approximately one | ~10
